The subject of this test is HEK-293T. Description: Cytotoxicity against AP1 expressing HEK293T cells coexpressing beta-lactamase pre-incubated 1 hr before TPA addition measured 18 hrs post TPA challenge by fluorimetric assay. The format is functional, cell-based. To be noted: Homo sapiens.

This note sets out measurements from ChEMBL document CHEMBL1821559, “Grassypeptolides F and G, cyanobacterial peptides from Lyngbya majuscula” (J Nat Prod, 2011).

Molecules are shown by their SMILES. Calls of active or inactive are those of the source. The rule behind the calls is not given here.

On to `CC(C)[C@H]1C(=O)N2CCC[C@H]2C(=O)N(C)[C@H](Cc2ccccc2)C2=N[C@@H](CS2)C(=O)N[C@H](C)C2=N[C@@H](CS2)C(=O)N(C)[C@H](Cc2ccccc2)C(=O)N[C@H](C(C)C)C(=O)N[C@H](C)[C@@H](C)C(=O)O[C@@H](Cc2ccccc2)C(=O)N1C`, for which the result was Active.
The same measure for `CC[C@H]1NC(=O)[C@@H]2CSC(=N2)[C@@H](Cc2ccccc2)N(C)C(=O)[C@@H]2CCCN2C(=O)[C@H](C(C)C)N(C)C(=O)[C@H](Cc2ccccc2)OC(=O)[C@H](C)[C@@H](C)NC(=O)[C@@H](C(C)C)NC(=O)[C@@H](Cc2ccccc2)N(C)C(=O)[C@@H]2CSC1=N2`: “Active”.
